From ChEMBL document CHEMBL4651402, “Screening of ~5500 FDA-approved drugs and clinical candidates for anti-SARS-CoV-2 activity” (2021)

System: SARS-CoV-2
Test: microbe, parasite or virus in culture
Conditions: Severe acute respiratory syndrome coronavirus 2, Vero C1008, 48 h

SMILES | IC50 [µM] | IC50 (read-out: pIC50 (converted)) [µM]
CCOc1nc2cccc(C(=O)O)c2n1Cc1ccc(-c2ccccc2-c2nnn[nH]2)cc1 | > 20 | > 20
CC(=O)OCC1=C(C(=O)O)N2C(=O)C(NC(=O)CSc3ccncc3)C2SC1 (stereo not given) | > 20 | > 20
CC(=O)NC(CC(=O)O)C(=O)O (stereo not given) | > 20 | > 20
CN(C)CCSc1nc2ccccc2cc1-c1ccccc1 | > 20 | > 20
O=S(=O)(O)c1ccc2ccccc2c1 | > 20 | > 20
COc1ccc(-c2ccc3cc(C(=O)O)ccc3c2)cc1C12CC3CC(CC(C3)C1)C2 | > 20 | > 20
N#CC[C@@H](C1CCCC1)n1cc(-c2ncnc3[nH]ccc23)cn1 | > 20 | > 20
Cc1c[nH]c2ccccc12 | > 20 | > 20
CCOC(=O)C(CCc1ccccc1)NC(C)C(=O)N1CC2(CC1C(=O)O)SCCS2 (stereo not given) | > 20 | > 20
N[C@H](Cc1ccc(F)cc1)C(=O)O | > 20 | > 20
C=CCn1c(=O)n(C2OC(CO)C(O)C2O)c2nc(N)[nH]c(=O)c21 (stereo not given) | > 20 | > 20
CN(C)[C@@H]1C(O)=C(C(N)=O)C(=O)[C@@]2(O)C(O)=C3C(=O)c4c(O)ccc(Cl)c4[C@@](C)(O)C3C[C@@H]12 (stereo not given in full) | > 20 | > 20
CCCC(=O)O[C@]1(C(=O)CCl)C(C)CC2C3CCC4=CC(=O)C=CC4(C)[C@@]3(F)C(=O)CC21C (stereo not given in full) | > 20 | > 20
CC(=O)OCC(=O)C1(O)CCC2C3CCC4=CC(=O)C=CC4(C)C3C(O)CC21C (stereo not given) | > 20 | > 20
CC1=C(C(=O)O)N2C(=O)C(NC(=O)C(N)c3ccc(O)cc3)C2SC1 (stereo not given) | > 20 | > 20
C[C@H]([C@@H](N)C(=O)N[C@@H](C(=O)O)[C@@H]1O[C@H](n2ccc(=O)[nH]c2=O)[C@@H](O)[C@H]1O)[C@@H](O)c1ccc(O)cn1 | > 20 | > 20
CC12CCC3C(CCC4=CC(=O)C=CC43C)C1CCC(=O)O2 (stereo not given) | > 20 | > 20
C[N+]1(C)C2CCC1CC(OC(=O)C(CO)c1ccccc1)C2 (stereo not given) | > 20 | > 20
C1=CN2CC(c3cccs3)N=C2S1 (stereo not given) | > 20 | > 20
CC(C1=C(CCN(C)C)Cc2ccccc21)c1ccccn1 (stereo not given) | > 20 | > 20
CC1CC(C)C(=O)C(C(O)CC2CC(=O)NC(=O)C2)C1 (stereo not given) | > 20 | > 20
CCO[C@H](COc1ccc(C(F)(F)F)cc1)CSc1ccc(OCC(=O)O)c(C)c1 | > 20 | > 20

SMILES | IC50 [µM] | IC50 (read-out: pIC50 (converted)) [µM]
C[C@H]1O[C@@H](Oc2c(-c3ccc(O)c(O)c3)oc3cc(O)cc(O)c3c2=O)[C@@H](O)[C@@H](O)[C@@H]1O | > 20 | > 20
CNC(=O)Oc1ccc2c(c1)[C@]1(C)CCN(C)C1N2C (stereo not given in full) | > 20 | > 20
C[Si](C)(C)c1cccc(C(=O)C(F)(F)F)c1 | > 20 | > 20
COc1ccc(CC(N)C(=O)NC2C(CO)OC(n3cnc4c(N(C)C)ncnc43)C2O)cc1 (stereo not given) | > 20 | > 20
ClCCN(Cc1ccccc1)Cc1ccccc1 | > 20 | > 20
CCC(=O)OC(OP(=O)(CCCCc1ccccc1)CC(=O)N1C[C@H](C2CCCCC2)C[C@H]1C(=O)O)C(C)C (stereo not given in full) | > 20 | > 20
CC1C2Cc3ccc(O)cc3C1(C)CCN2C (stereo not given) | > 20 | > 20
CC1(Cn2ccnn2)[C@H](C(=O)O)N2C(=O)C[C@H]2S1(=O)=O (stereo not given in full) | > 20 | > 20
COc1ccc(C(=O)Nc2c(Cl)cncc2Cl)cc1OC1CCCC1 | > 20 | > 20
C=C[C@](C)(O)CC[C@H]1C(=C)C[C@H](O)[C@H]2C(C)(C)CCC[C@]12C | > 20 | > 20
O=C(O)CC[N+](=O)[O-] | > 20 | > 20
CC[C@@H]1C[C@]1(NC(=O)[C@@H]1C[C@@H]2CN1C(=O)[C@H](C(C)(C)C)NC(=O)OCC(C)(C)CCCCc1cccc3c1CN(C3)C(=O)O2)C(=O)NS(=O)(=O)C1CC1 | > 20 | > 20
NC[C@@H]1OB(O)c2c(OCCCO)cccc21 | > 20 | > 20
C[C@H]1N=C(N)O[C@@H]1c1ccccc1 | > 20 | > 20
COc1c2c(cc3c1C(O)N(C)CC3)OCO2 (stereo not given) | > 20 | > 20
CCC1CCCC(OC2CCC(N(C)C)C(C)O2)C(C)C(=O)C2=CC3C(C=C(C)C4CC(OC5OC(C)C(OC)C(OC)C5OC)CC43)C2CC(=O)O1.CCC1CCCC(OC2CCC(N(C)C)C(C)O2)C(C)C(=O)C2=CC3C(C=CC4CC(OC5OC(C)C(OC)C(OC)C5OC)CC43)C2CC(=O)O1 (stereo not given) | > 20 | > 20
COc1ccc2c(c1)CCC1C2CCC2(C)C(O)CCC12 (stereo not given) | > 20 | > 20
NCC1O[C@H](O[C@@H]2C(N)C[C@@H](N)C(O[C@H]3OC(CO)[C@@H](O)C(N)C3O)C2O)C(N)C(O)[C@@H]1O (stereo not given in full) | > 20 | > 20
COc1ccc2c(c1OC)C13CCN(C)C(C2)C1(O)CCC(O)C3 (stereo not given) | > 20 | > 20
CCCn1c(=O)c2[nH]c(C3CC4CC3[C@H]3O[C@@H]43)nc2n(CCC)c1=O (stereo not given in full) | > 20 | > 20
CCO[C@@H]1O[C@@H]2O[C@@]3(C)CC[C@@H]4[C@H](C)CC[C@@H]([C@H]1C)[C@@]24OO3 | > 20 | > 20
O=C(O)C(O)C(O)C(O)C(O)C(O)CO (stereo not given) | > 20 | > 20

SMILES | IC50 [µM] | IC50 (read-out: pIC50 (converted)) [µM]
CN1[C@@H]2CC[C@H]1CC(NC(=O)n1c(=O)[nH]c3ccccc31)C2 (stereo not given in full) | > 20 | > 20
CC(=O)OC1C[C@@]2(C)[C@@H](C[C@@H](O)C3[C@]2(C)CC[C@H]2[C@H](C)[C@H](O)CC[C@]32C)/C1=C(\CCC=C(C)C)C(=O)O (stereo not given in full) | > 20 | > 20
[2H]c1c(C([2H])([2H])[2H])nc(N2CC3CN(C(=O)c4c(F)cccc4-n4nccn4)CC3C2)nc1C([2H])([2H])[2H] (stereo not given) | > 20 | > 20
CC(C)CCCC(C)C1CCC2C3CCC4CC(=O)CCC4(C)C3CCC12C (stereo not given) | > 20 | > 20
CCCCCCCCCCCC[N+](C)(C)CC(=O)O | > 20 | > 20
CC12CCC3C(CC[C@H]4C[C@H](Cl)CCC34C)C1CCC2=O (stereo not given in full) | > 20 | > 20
CN(C)CC/C=C1\c2ccccc2CN(C)c2ccccc21 | > 20 | > 20
CCCCCC(C)(O)/C=C/C1CCC(=O)C1CCCCCCC(=O)O (stereo not given) | > 20 | > 20
Cc1nc2n(c(=O)c1CCN1CCC(c3noc4cc(F)ccc34)CC1)CCC[C@@H]2O | > 20 | > 20
CN1CC(O)C2=CC(=NNC(N)=O)C(=O)C=C21 (stereo not given) | > 20 | > 20
CC(=O)[C@@]1(O)CCC2C3C[C@H](C)C4=CC(=O)CCC4(C)C3CCC21C (stereo not given in full) | > 20 | > 20
CC[C@H](C)n1ncn(-c2ccc(N3CCN(c4ccc(OC[C@H]5CO[C@@](Cn6cncn6)(c6ccc(F)cc6F)O5)cc4)CC3)cc2)c1=O | > 20 | > 20
C[C@]12C=CC(=O)C=C1CCC1C2C(O)C[C@@]2(C)C1CC[C@]2(O)C(=O)COC(=O)c1cccc(S(=O)(=O)O)c1 (stereo not given in full) | > 20 | > 20
N[C@H](CCC(=O)NCCS(=O)(=O)O)C(=O)O | > 20 | > 20
C[C@@H]1CC2C3CCC4=CC(=O)C=CC4(C)[C@@]3(Cl)C(Cl)CC2(C)[C@@]1(O)C(=O)CO (stereo not given in full) | > 20 | > 20
CC(=O)OC1CCC2(C)C3CC=C4C5CC(C)(C)CCC5(C(=O)O)CC[C@@]4(C)C3(C)CC[C@H]2C1(C)C (stereo not given in full) | > 20 | > 20
C=C1[C@H](CO)[C@@H](O)C[C@@H]1n1cnc2c(=O)[nH]c(N)nc21 | > 20 | > 20
CCOC(=O)[C@H](CCc1ccccc1)N[C@@H](C)C(=O)N1CCC[C@H]1C(=O)O | > 20 | > 20
COc1ccc(S(=O)(=O)N2C(=O)[C@@](c3ccccc3OC)(N3C[C@H](O)C[C@H]3C(=O)N(C)C)c3cc(Cl)ccc32)c(OC)c1 | > 20 | > 20
N=C(Nc1ccccc1)Nc1ccccc1 | > 20 | > 20
Nc1cccc2c1C(=O)c1cccc(N)c1C2=O | > 20 | > 20
